Data set [1] relates to SCC9. In words: Efficacy against head and neck tumour cell line SCC9. The format is cell-based. To be noted: substance alone, treatment period of 72 hours (FIG. 1). From the text:
(§1) The biological activity of 7β-hydroxycholesterol and caroverin alone and also combined with each other was investigated. The efficacy was checked using the head and neck tumour cell lines SCC9 and SCC25.

Data set [2] deals with SCC25. In words: Efficacy against head and neck tumour cell line SCC25. The format is cell-based. To be noted: substance alone, treatment period of 72 hours (FIG. 1).
Excerpt: as §1

Data set [3] relates to head and neck tumour cell lines SCC9 and SCC25. The data set can be described thus: Efficacy on tumour cells, cell line not given (cisplatin combinations, best concentration, proliferation). The format is cell-based. To be noted: combined with cisplatin (FIG. 2, FIG. 5); 7β-hydroxycholesterol in small doses.
Excerpt: as §1

The subject of data set [4] is healthy cells. To be noted: does not attack healthy cells; cited from earlier work.

As to `CC(C)CCC[C@@H](C)[C@H]1CC[C@H]2[C@@H]3[C@@H](O)C=C4C[C@@H](O)CC[C@]4(C)[C@H]3CC[C@]12C` [7β-hydroxycholesterol], the “efficacy against cell line” value in data set [1] and in data set [2] was “effective” throughout. Also, the “synergistic effect combined with cisplatin” value in data set [3] is reported as “synergistic effect”. Also, the toxicity result in data set [4] is on record as “completely non-toxic”.

For `CCN(CC)CCn1c(=O)c(Cc2ccc(OC)cc2)nc2ccccc21` [caroverin, 1-diethylaminoethyl-3-(p-methoxybenzyl)-1,2-dihydro-quinoxalin-2-one, reference compound], in data set [3], the “synergistic effect combined with cisplatin” value is reported as “could not be proved”.

The values are drawn from patent publication US20080200424A1, “Preparation for Treating Cancer” (priority 2004, published 2008).
